Laboratory results as given in publication PMC2820364 (The Biochemical journal, 2008).

Columns and labels:
[1] = target: p110β WT (Homo sapiens, UniProt P42338); assay: PI3K lipid kinase inhibition assay, wild-type p110β; format: biochemical; details: for selectivity for p110β relative to p110α (wild type): wild type enzymes
[2] = target: p110β (D862Q) (Homo sapiens, UniProt P42338, D862Q); assay: PI3K lipid kinase inhibition assay, p110β D862Q mutant; format: biochemical
[3] = target: p110β (E858H) (Homo sapiens, UniProt P42338, E858H); assay: PI3K lipid kinase inhibition assay, p110β E858H mutant; format: biochemical
Sequence of p110β (E858H) (P42338 whole entry E858H, species assumed): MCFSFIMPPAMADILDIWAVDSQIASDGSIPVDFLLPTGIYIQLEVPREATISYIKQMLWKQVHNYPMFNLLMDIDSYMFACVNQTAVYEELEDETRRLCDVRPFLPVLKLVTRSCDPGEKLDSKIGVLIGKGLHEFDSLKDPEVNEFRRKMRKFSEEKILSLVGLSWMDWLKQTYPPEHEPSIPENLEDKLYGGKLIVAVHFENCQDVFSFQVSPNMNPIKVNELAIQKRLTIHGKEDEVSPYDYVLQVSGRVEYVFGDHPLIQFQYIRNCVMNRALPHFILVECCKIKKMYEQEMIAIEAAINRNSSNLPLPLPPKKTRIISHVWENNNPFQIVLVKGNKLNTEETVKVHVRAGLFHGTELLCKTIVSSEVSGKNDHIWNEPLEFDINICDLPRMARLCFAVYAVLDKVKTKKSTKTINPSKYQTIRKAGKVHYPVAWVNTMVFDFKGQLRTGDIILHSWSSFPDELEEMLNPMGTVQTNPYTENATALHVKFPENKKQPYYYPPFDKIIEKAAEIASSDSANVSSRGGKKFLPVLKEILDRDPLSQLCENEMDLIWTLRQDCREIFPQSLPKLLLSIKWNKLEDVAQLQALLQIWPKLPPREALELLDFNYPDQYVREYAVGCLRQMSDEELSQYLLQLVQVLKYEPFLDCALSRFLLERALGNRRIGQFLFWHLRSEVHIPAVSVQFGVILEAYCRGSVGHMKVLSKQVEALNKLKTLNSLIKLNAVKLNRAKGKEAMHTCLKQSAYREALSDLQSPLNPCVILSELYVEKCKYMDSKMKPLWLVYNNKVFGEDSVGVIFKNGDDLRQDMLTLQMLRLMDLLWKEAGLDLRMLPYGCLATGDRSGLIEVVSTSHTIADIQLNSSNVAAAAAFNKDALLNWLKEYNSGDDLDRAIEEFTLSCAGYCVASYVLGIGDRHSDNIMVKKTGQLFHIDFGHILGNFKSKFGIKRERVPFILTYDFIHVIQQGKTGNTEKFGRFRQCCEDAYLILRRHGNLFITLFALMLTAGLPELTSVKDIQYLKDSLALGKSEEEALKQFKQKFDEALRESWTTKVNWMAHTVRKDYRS
Sequence of p110β (E858H) (P27986 whole entry partner, species assumed): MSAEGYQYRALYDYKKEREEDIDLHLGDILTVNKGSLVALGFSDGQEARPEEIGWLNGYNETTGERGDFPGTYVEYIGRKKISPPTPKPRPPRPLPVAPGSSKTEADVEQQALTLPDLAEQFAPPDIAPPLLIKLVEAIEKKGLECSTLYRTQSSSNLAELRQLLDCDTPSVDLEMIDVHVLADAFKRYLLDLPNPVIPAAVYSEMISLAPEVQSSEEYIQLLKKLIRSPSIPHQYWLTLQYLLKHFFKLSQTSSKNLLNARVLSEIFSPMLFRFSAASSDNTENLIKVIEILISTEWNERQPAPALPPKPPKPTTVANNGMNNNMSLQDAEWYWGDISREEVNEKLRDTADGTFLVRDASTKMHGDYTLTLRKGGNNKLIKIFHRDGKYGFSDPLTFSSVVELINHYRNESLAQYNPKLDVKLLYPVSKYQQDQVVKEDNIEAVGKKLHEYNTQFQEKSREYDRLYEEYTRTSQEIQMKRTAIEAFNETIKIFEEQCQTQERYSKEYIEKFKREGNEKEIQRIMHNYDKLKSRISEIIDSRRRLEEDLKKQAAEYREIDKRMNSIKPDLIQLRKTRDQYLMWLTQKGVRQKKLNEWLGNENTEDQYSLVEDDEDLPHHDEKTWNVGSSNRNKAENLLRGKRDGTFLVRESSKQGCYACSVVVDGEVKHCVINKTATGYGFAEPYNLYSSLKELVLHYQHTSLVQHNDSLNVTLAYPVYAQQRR

[4] = target: p110α WT (Homo sapiens, UniProt P42336); assay: PI3K lipid kinase inhibition assay, wild-type p110α; format: biochemical; details: IC50 ratio p110α WT / p110β WT
Sequence of p110α WT (P42336 whole entry): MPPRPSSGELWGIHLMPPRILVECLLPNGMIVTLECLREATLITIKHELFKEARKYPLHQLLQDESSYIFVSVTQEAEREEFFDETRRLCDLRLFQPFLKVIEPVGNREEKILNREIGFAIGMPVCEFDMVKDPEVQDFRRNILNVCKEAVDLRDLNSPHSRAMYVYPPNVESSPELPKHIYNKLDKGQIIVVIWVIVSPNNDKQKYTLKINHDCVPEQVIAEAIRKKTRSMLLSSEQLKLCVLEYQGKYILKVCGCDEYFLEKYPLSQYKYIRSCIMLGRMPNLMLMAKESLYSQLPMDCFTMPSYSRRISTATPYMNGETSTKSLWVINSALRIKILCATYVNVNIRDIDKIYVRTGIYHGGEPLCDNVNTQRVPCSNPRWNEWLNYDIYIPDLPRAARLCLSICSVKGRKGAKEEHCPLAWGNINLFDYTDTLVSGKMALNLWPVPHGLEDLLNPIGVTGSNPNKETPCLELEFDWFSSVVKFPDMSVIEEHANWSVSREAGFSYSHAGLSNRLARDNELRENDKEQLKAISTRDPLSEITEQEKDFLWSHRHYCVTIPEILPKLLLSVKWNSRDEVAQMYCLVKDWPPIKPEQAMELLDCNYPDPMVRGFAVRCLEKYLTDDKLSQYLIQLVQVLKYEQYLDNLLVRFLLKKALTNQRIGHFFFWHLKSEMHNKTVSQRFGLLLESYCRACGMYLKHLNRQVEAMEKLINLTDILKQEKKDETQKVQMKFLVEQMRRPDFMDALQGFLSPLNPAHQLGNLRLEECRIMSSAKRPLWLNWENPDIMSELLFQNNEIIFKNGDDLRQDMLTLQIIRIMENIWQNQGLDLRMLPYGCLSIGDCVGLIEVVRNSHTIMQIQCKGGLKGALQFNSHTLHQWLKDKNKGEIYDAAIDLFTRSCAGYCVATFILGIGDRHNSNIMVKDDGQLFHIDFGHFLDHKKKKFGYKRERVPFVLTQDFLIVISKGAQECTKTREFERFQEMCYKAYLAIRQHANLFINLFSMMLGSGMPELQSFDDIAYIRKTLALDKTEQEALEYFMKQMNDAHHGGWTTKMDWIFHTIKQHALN
Sequence of p110α WT (P27986 whole entry partner): as the sequence (P27986 whole entry partner, species assumed) above

[5] = target: p110α (Q859D) (Homo sapiens, UniProt P42336, Q859D); assay: PI3K lipid kinase inhibition assay, p110α Q859D mutant; format: biochemical; details: for Selectivity ratio α/β Gln↔Asp: IC50 ratio p110α-(Q859D) / p110β-(D862Q)
Sequence of p110α (Q859D) (P42336 whole entry Q859D, species assumed): as the sequence (P42336 whole entry) above, with Q859D counted along it
Sequence of p110α (Q859D) (P27986 whole entry partner, species assumed): as the sequence (P27986 whole entry partner, species assumed) above

[6] = target: p110α (H855E) (Homo sapiens, UniProt P42336, H855E); assay: PI3K lipid kinase inhibition assay, p110α H855E mutant; format: biochemical; details: for Selectivity ratio α/β His↔Glu: IC50 ratio p110α-(H855E) / p110β-(E858H); for loss of potency at H857E-p110α relative to wild type: mutant printed as H857E
Sequence of p110α (H855E) (P42336 whole entry H855E, species assumed): as the sequence (P42336 whole entry) above, with H855E counted along it
Sequence of p110α (H855E) (P27986 whole entry partner, species assumed): as the sequence (P27986 whole entry partner, species assumed) above

[7] = test system: p110β; details: read-out: IC50 against p110β; 10μM ATP; ref Knight et al. 2006; cited from earlier work

Sequence of p110β (D862Q) (P42338 whole entry D862Q, species assumed): as the sequence (P42338 whole entry E858H, species assumed) above, with H858E, D862Q counted along it
Sequence of p110β (D862Q) (P27986 whole entry partner, species assumed): as the sequence (P27986 whole entry partner, species assumed) above
Sequence of p110β WT (P42338 whole entry): as the sequence (P42338 whole entry E858H, species assumed) above, with H858E counted along it
Sequence of p110β WT (P27986 whole entry partner): as the sequence (P27986 whole entry partner, species assumed) above

Row | Compound | selectivity for p110β relative to p110α (wild type) [1] | effect of p110β D862Q mutation on inhibition (in words) ([2]; compared with wild type p110β) | effect of p110β E858H mutation on inhibition (in words) ([3]; compared with wild type p110β) | Selectivity ratio α/β (wt) [4] | loss of potency at Q859D-p110α relative to wild type [5] | Selectivity ratio α/β Gln↔Asp [5] | Selectivity ratio α/β His↔Glu [6] | loss of potency at H857E-p110α relative to wild type [6] | increase in potency at p110β-D862Q relative to wild type [2] | increase in potency at p110β-E858H relative to wild type [3] | difference between literature IC50 and IC50 of this study at p110β ([1]; 0.12μM (Knight et al. 2006) v. 7nM) [fold] | reduction in potency at p110β-D862Q relative to wild type [2] | reduction in potency at p110β-E858H relative to wild type [3] | IC50 [7] [nM]
1 | O=c1cc(N2CCOCC2)oc2c(OCc3ccccc3)cccc12 [TGX102] | approximately 4 fold | indistinguishable from the wild type | indistinguishable from the wild type | 4.30 | 3 fold | 12.65 | 17.3 | 3 fold |  |  |  |  |  | 
2 | O=c1cc(N2CCOCC2)oc2c(OCc3cccnc3)cccc12 [TGX132] |  |  |  | 0.34 | 5-6 fold | 4.59 | 3.56 | 5-6 fold | approximately 2 fold | approximately 2 fold |  |  |  | 
3 | TGX286 | over 140 fold |  |  | 142.0 |  | 126.2 | 106.4 |  |  |  | 17 | approximately 2 fold | approximately 2 fold | 120
